The source of these data is patent US7432256B2, “Substitued imidazo [1,5-A][1,2,4]triazolo[1,5-D][1,4]benzodiazepine derivatives” (Hoffman-La Roche Inc., priority 2004, dated 2008).

For experiment [1], the target named is T1, GABA A receptor a1b3g2 (hα1) (Homo sapiens, UniProt P14867+P18507).
T1 construct: expressed in transfected cells; host or cells: HEK293 (transient transfection), membranes
Description: [3H]flumazenil competition binding, GABA A a1b3g2 receptors in HEK293 cells. Here is the method: (§1) Membrane Preparation and Binding Assay
(§2) The affinity of compounds at GABA A receptor subtypes was measured by competition for [3H]flumazenil (85 Ci/mmol; Roche) binding to HEK293 cells expressing rat (stably transfected) or human (transiently transfected) receptors of composition a1b3g2, a2b3g2, a3b3g2 and a5b3g2.
(§3) Cell pellets were suspended in Krebs-tris buffer (4.8 mM KCl, 1.2 mM CaCl2, 1.2 mM MgCl2, 120 mM NaCl, 15 mM Tris; pH 7.5; binding assay buffer), homogenized by polytron for ca. 20 sec on ice and centrifuged for 60 min at 4° C. (50000 g; Sorvall, rotor: SM24=20000 rpm). The cell pellets were resuspended in Krebs-tris buffer and homogenized by polytron for ca. 15 sec on ice. Protein was measured (Bradford method, Bio-Rad) and aliquots of 1 mL were prepared and stored at −80° C.
(§4) Assays were incubated to equilibrium for 1 hour at 4° C. and harvested onto GF/C uni-filters (Packard) by filtration using a Packard harvester and washing with ice-cold wash buffer (50 mM Tris; pH 7.5). After drying, filter-retained radioactivity was detected by liquid scintillation counting. Ki values were calculated using Excel-Fit (Microsoft) and are the means of two determinations.
(§5) The major important difference is change from SF9 to HEK293 cells (which are human transiently transfected).

Experiment [2] deals with T2, GABA A receptor a2b3g2 (hα2) (Homo sapiens, UniProt P18507+P47869).
T2 construct: expressed in transfected cells; host or cells: HEK293 (transient transfection), membranes
Description: [3H]flumazenil competition binding, GABA A a2b3g2 receptors in HEK293 cells. On the procedure: as §1, §2, §3
(§6) Radioligand binding assays were carried out in a volume of […] (96-well plates) which contained […] of cell memebranes, [3H]flumazenil at a concentration of 1 nM for a1, a2, a3 subunits and 0.5 nM for a5 subunits and the test compound in the range of 10-10-3×10^-6 M. Nonspecific binding was defined by 10^-5 M diazepam and typically represented less than 5% of the total binding. Assays were incubated to equilibrium for 1 hour at 4° C. and harvested onto GF/C uni-filters (Packard) by filtration using a Packard harvester and washing with ice-cold wash buffer (50 mM Tris; pH 7.5). After drying, filter-retained radioactivity was detected by liquid scintillation counting. Ki values were calculated using Excel-Fit (Microsoft) and are the means of two determinations.
as §5

Experiment [3] has as its target T3, GABA A receptor a3b3g2 (hα3) (Homo sapiens, UniProt P18507+P34903).
T3 construct: expressed in transfected cells; host or cells: HEK293 (transient transfection), membranes
Description: [3H]flumazenil competition binding, GABA A a3b3g2 receptors in HEK293 cells. On the procedure: as §1, §2, §3, §6, §5

Experiment [4] concerns the target T4, GABA A receptor a5b3g2 (hα5) (Homo sapiens, UniProt P18507+P31644).
T4 construct: expressed in transfected cells; host or cells: HEK293 (transient transfection), membranes
Description: [3H]flumazenil competition binding, GABA A a5b3g2 receptors in HEK293 cells. Here is the method:
as §1, §2, §3, §4, §5

Setting [5] is: [3H]flumazenil 0.5 nM, HEK293 membranes, human transiently transfected, mean of two determinations, read-out: Ki[nM] hα5.
[6] abbreviates: [3H]flumazenil 1 nM, HEK293 membranes, human transiently transfected, mean of two determinations, read-out: Ki[nM] hα1.
[7] abbreviates: [3H]flumazenil 1 nM, HEK293 membranes, human transiently transfected, mean of two determinations, read-out: Ki[nM] hα2.
Where [8] appears, read: [3H]flumazenil 1 nM, HEK293 membranes, human transiently transfected, mean of two determinations, read-out: Ki[nM] hα3.

Counter-ions that a name gives are not always drawn. Like-named read-outs stand apart in the source and are kept apart here.

The Ki is the dissociation constant of the complex between target and ligand, obtained from inhibition or displacement. On to `C=Cc1ncn2c1Cn1ncnc1-c1cc(F)ccc1-2` [Example 19, 3-Fluoro-10-vinyl-9H-imidazo[1,5-a][1,2,4]triazolo[1,5-d][1,4]benzodiazepine], for which the Ki was 7.8 nM in experiment [1], 5.9 nM in experiment [2], 2.3 nM in experiment [3] and 11 nM in experiment [4] (setting [5]).
As for `Cc1ncn2c1Cn1ncnc1-c1cc(F)ccc1-2` [Example 2, 3-Fluoro-10-methyl-9H-imidazo[1,5-a][1,2,4]triazolo[1,5-d][1,4]benzodiazepine], the inhibition constant (Ki) came out at 18.2 nM in experiment [1], 9.1 nM in experiment [2], 10.8 nM in experiment [3] and 3 nM in experiment [4] (setting [5]).
On the same counts, the results for `C#Cc1ncn2c1Cn1ncnc1-c1cc(Br)ccc1-2` [Example 27, 3-Bromo-10-ethynyl-9H-imidazo[1,5-a][1,2,4]triazolo[1,5-d][1,4]benzodiazepine] are 20.3 nM, 19 nM, 11.9 nM and 0.9 nM.
As to “3-Fluoro-10-(3-methoxy-phenylethynyl)-9H-imidazo[1,5-a][1,2,4]triazolo[1,5-d][1,4]benzodiazepine [Example 34]”, the Ki in experiment [1] (setting [6]) stood at 14.1 nM; in experiment [4] (setting [5]), 1.1 nM.
For `Fc1ccc2c(c1)-c1ncnn1Cc1c(C#Cc3cccc(C(F)(F)F)c3)ncn1-2` [Example 33, 3-Fluoro-10-(3-trifluoromethyl-phenylethynyl)-9H-imidazo[1,5-a][1,2,4]triazolo[1,5-d][1,4]benzodiazepine], the inhibition constant (Ki) in experiment [1] came out at 3.4 nM; in experiment [4] (setting [5]) it was 1.2 nM.
Consider `Cc1ncn2c1Cn1ncnc1-c1cc(Cl)ccc1-2` [Example 3, 3-Chloro-10-methyl-9H-imidazo[1,5-a][1,2,4]triazolo[1,5-d][1,4]benzodiazepine], for which the Ki in experiment [1] came to 18.5 nM; in experiment [2] (setting [7]), 219 nM; in experiment [3] (setting [8]), 265 nM; in experiment [4] it was 3 nM.
With `Cc1ncn2c1Cn1ncnc1-c1ccccc1-2` [Example 1, 10-Methyl-9H-imidazo[1,5-a][1,2,4]triazolo[1,5-d][1,4]benzodiazepine], the Ki worked out at 41.6 nM in experiment [1], 15.5 nM in experiment [2], 10.1 nM in experiment [3] and 2.6 nM in experiment [4] (setting [5]).
Turning to `FC(F)=Cc1ncn2c1Cn1ncnc1-c1ccccc1-2` [Example 40, 10-(2,2-Difluoro-vinyl)-9H-imidazo[1,5-a][1,2,4]triazolo[1,5-d][1,4]benzodiazepine], the inhibition constant Ki in experiment [1] worked out at 8.5 nM; in experiment [2] it was 3.7 nM; in experiment [3], 2.3 nM; in experiment [4] (setting [5]) it was 0.5 nM.
On the same counts, the results for `C=Cc1ncn2c1Cn1ncnc1-c1cc(Cl)ccc1-2` [Example 20, 3-Chloro-10-vinyl-9H-imidazo[1,5-a][1,2,4]triazolo[1,5-d][1,4]benzodiazepine] are 35.8 nM, 33.6 nM, 20.8 nM and 2.2 nM.
As for `C=Cc1ncn2c1Cn1ncnc1-c1ccccc1-2` [Example 18, 10-Vinyl-9H-imidazo[1,5-a][1,2,4]triazolo[1,5-d][1,4]benzodiazepine], the inhibition constant (Ki) was determined as 12.8 nM in experiment [1], 5.7 nM in experiment [2], 3.7 nM in experiment [3] and 0.8 nM in experiment [4] (setting [5]).
`FC(F)Cc1ncn2c1Cn1ncnc1-c1ccccc1-2` [Example 41, 10-(2,2-Difluoro-ethyl)-9H-imidazo[1,5-a][1,2,4]triazolo[1,5-d][1,4]benzodiazepine]: the Ki was determined as 13.5 nM in experiment [1], 14.4 nM in experiment [2], 7 nM in experiment [3] and 1 nM in experiment [4] (setting [5]).
Consider `Clc1ccc2c(c1)-c1ncnn1Cc1c(C#Cc3ccccc3)ncn1-2` [Example 30, 3-Chloro-10-phenylethynyl-9H-imidazo[1,5-a][1,2,4]triazolo[1,5-d][1,4]benzodiazepine], for which the Ki in experiment [1] amounted to 13.3 nM; in experiment [4] (setting [5]), 1.2 nM.
For the molecule `CCc1ncn2c1Cn1ncnc1-c1cc(F)ccc1-2` [Example 9, 10-Ethyl-3-fluoro-9H-imidazo[1,5-a][1,2,4]triazolo[1,5-d][1,4]benzodiazepine], the Ki in experiment [1] stood at 7.9 nM; in experiment [2] it was 1.9 nM; in experiment [3], 1.3 nM; in experiment [4] (setting [5]), 0.5 nM.
Take `CC(C)c1cccc(C#Cc2ncn3c2Cn2ncnc2-c2cc(F)ccc2-3)c1` [Example 36, 3-Fluoro-10-(3-isopropyl-phenylethynyl)-9H-imidazo[1,5-a][1,2,4]triazolo[1,5-d][1,4]benzodiazepine]: the Ki in experiment [1] worked out at 4 nM; in experiment [4] (setting [5]) it was 1.5 nM.
In the case of `CCc1ncn2c1Cn1ncnc1-c1cc(OC)ccc1-2` [Example 11, 10-Ethyl-3-methoxy-9H-imidazo[1,5-a][1,2,4]triazolo[1,5-d][1,4]benzodiazepine], the inhibitory constant (Ki) worked out at 26.7 nM in experiment [1], 84.6 nM in experiment [2], 39.1 nM in experiment [3] and 3.8 nM in experiment [4] (setting [5]).
For the molecule `C/C=C/c1ncn2c1Cn1ncnc1-c1cc(Cl)ccc1-2` [Example 21, 3-Chloro-10-(E)-propenyl-9H-imidazo[1,5-a][1,2,4]triazolo[1,5-d][1,4]benzodiazepine], the Ki in experiment [1] came to 5.2 nM; in experiment [2] it was 6.9 nM; in experiment [3], 4.8 nM; in experiment [4] (setting [5]), 0.4 nM.
Take `Cc1ncn2c1Cn1ncnc1-c1cc(I)ccc1-2` [Example 53, 3-Iodo-10-methyl-9H-imidazo[1,5-a][1,2,4]triazolo[1,5-d][1,4]benzodiazepine hydrochloride (1:1)]: the inhibition constant (Ki) in experiment [1] (setting [6]) turned out to be 184 nM; in experiment [2] (setting [7]), 261 nM; in experiment [3] (setting [8]), 126 nM; in experiment [4] it was 4.3 nM.
Consider `Cc1ncn2c1Cn1ncnc1-c1c(F)cccc1-2` [Example 57, 4-Fluoro-10-methyl-9H-imidazo[1,5-a][1,2,4]triazolo[1,5-d][1,4]benzodiazepine], for which the inhibition constant (Ki) in experiment [1] was 4.7 nM; in experiment [2], 12.8 nM; in experiment [3], 6.3 nM; in experiment [4] (setting [5]), 1 nM.
On the same counts, the results for `CCc1ncn2c1Cn1ncnc1-c1cc(Cl)ccc1-2` [Example 10, 3-Chloro-10-ethyl-9H-imidazo[1,5-a][1,2,4]triazolo[1,5-d][1,4]benzodiazepine] are 15.4 nM, 9.6 nM, 7 nM and 2.1 nM.
As for `Fc1cccc(C#Cc2ncn3c2Cn2ncnc2-c2cc(F)ccc2-3)c1` [Example 31, 3-Fluoro-10-(3-fluoro-phenylethynyl)-9H-imidazo[1,5-a][1,2,4]triazolo[1,5-d][1,4]benzodiazepine], the inhibitory constant (Ki) was 5.5 nM in experiment [1], 4.5 nM in experiment [2], 3.6 nM in experiment [3] and 1.6 nM in experiment [4] (setting [5]).
On the same counts, the results for `Clc1ccc2c(c1)-c1ncnn1Cc1c(/C=C/C3CC3)ncn1-2` [Example 23, 3-Chloro-10-((E)-2-cyclopropyl-vinyl)-9H-imidazo[1,5-a][1,2,4]triazolo[1,5-d][1,4]benzodiazepine] are 26.9 nM, 41 nM, 32.5 nM and 3.7 nM.
On the same counts, the results for `C#Cc1ncn2c1Cn1ncnc1-c1cc(Cl)ccc1-2` [Example 26, 3-Chloro-10-ethynyl-9H-imidazo[1,5-a][1,2,4]triazolo[1,5-d][1,4]benzodiazepine] are 4.6 nM, 6.4 nM, 3.5 nM and 0.5 nM.
Turning to `CCCc1ncn2c1Cn1ncnc1-c1cc(Br)ccc1-2` [Example 42, 3-Bromo-10-propyl-9H-imidazo[1,5-a][1,2,4]triazolo[1,5-d][1,4]benzodiazepine], the Ki worked out at 10.6 nM in experiment [1] and 1.4 nM in experiment [4] (setting [5]).
`CC(C)(O)C#Cc1ncn2c1Cn1ncnc1-c1cc(Cl)ccc1-2` [Example 28, 3-Chloro-10-(3-hydroxy-3-methyl-but-1-ynyl)-9H-imidazo[1,5-a][1,2,4]triazolo[1,5-d][1,4]benzodiazepine]: the inhibition constant (Ki) amounted to 91 nM in experiment [1] and 3.6 nM in experiment [4] (setting [5]).
